Data reported in US20120070442A1, “METHODS AND COMPOSITIONS FOR TREATING CANCER” (The Regents of the University of Colorado, a body corporate, priority 2007, published 2012).

System: NSCLC
Assay: Clinical response and survival of NSCLC patients treated with gefitinib
Assay type: in vivo, human
Excerpt: After appropriate approval from the institution and written informed consent for comprehensive use of molecular and pathologic analysis was received from each patient, NSCLC specimens were formalin-fixed, paraffin-embedded at Tokyo Medical University, Tokyo, Japan. Information on gender, age, histology, cigarette use, response, and survival was obtained for each patient. Tumor specimens were microdissected under stereoscopic microscopy (LEICA MZ12, Leica Microsystems, Wetzlar, Germany). DNA was extracted from tumor cells with the DNeasy Tissue Kit (Qiagen, Valencia, Calif.).
For all tests, a level of P<0.05 was considered statistically significant. Fisher's exact test for count data was used to analyze proportions among the factors studied. […] In this case, response or stable disease was considered a positive outcome while progressive disease was considered negative. The Kaplan-Meier method was used to estimate the probability of survival as a function of time. […] Significant differences between survival curves were analyzed using the log-rank test. Multivariate analysis of the relative importance of the factors to survival was performed using the Cox proportional-hazards method.
Each sample was analyzed in triplicate on a quantitation run. The ratio of miR-128b to CFTR DNA copies was determined. […]

COc1cc2ncnc(Nc3ccc(F)c(Cl)c3)c2cc1OCCCN1CCOCC1 [Gefitinib, N-(3-chloro-4-fluoro-phenyl)-7-methoxy-6-(3-morpholin-4-ylpropoxy)quinazolin-4-amine]
survival after initiation of gefitinib therapy (NSCLC patients with deletion of miR-128b by DNA copy): 23.3 months | survival after initiation of gefitinib therapy (NSCLC patients without deletion of miR-128b by DNA copy): 10.7 months
